The assay deals with MSSA. Briefly: Specificity of the medium on the MSSA strains. To be noted: 8 MSSA strains; for number of MSSA strains that grew at 24 h after stress: plates 3 days at 37° C. before inoculation. The class given is cell-based, Staphylococcus aureus. An excerpt:
The basal medium comprises peptone, salts, antifungal and antibacterial agents to inhibit the growth of Gram negative bacteria and fungi. The basal medium is chosen to promote the growth of staphylococci, in particular Staphylococcus aureus.
Several strains of MRSA (methicillin resistant S. aureus) and MSSA (methicillin susceptible S. aureus) have been chosen from a collection of strains. Strains were cultivated first on a non selective medium. The colonies are used to perform a “heavy inoculum or HI”, corresponding to approximately 10^8 bacteria/mL inoculated as a spot on a small portion of the plate, and a “light inoculum or LI”, corresponding to approximately 10^5 bacteria/mL streaked on a large portion of the plate. Plates were incubated for 48 h at 35-37° C. The reading was performed at 24 and 48 h of incubation time.
Abbreviations and legends to the Tables: • cefotetan (CTT) • ceftriaxone (CRO) • cefuroxime (CXM) • cefsulodin (CFS), • Cefepime (FEP) • Cefoperazone (CFP) • cefpodoxime (CPD) • moxalactam (MOX) • cefoxitin (FOX) • cefmetazole (CMT) • ceftiofur (XLN) • G: growth (if nothing else is written, “G” means growth with HI and LI at 24 h); Imp G: heavy growth; AG: absence of growth; cfu: colony forming unit; μcfu: pinpoint colonies; SENS: Sensitivity (%); SPE: Specificity (%); MRSA: methicillin-resistant Staphylococcus aureus; MSSA: methicillin-sensitive Staphylococcus aureus; MRSE: methicillin-resistant Staphylococcus epidermidis; MSSE: methicillin-sensitive Staphylococcus epidermidis; Results
When two cephalosporins are added, the stability of the formula is increased. Due to the fact that the molecules are unstable, growth of MSSA often appears after stress. The inventors have mimicked the stress due to transportation of the Petri dishes to the customer's lab, in summer, by placing the plates for 3 days at 37° C. before inoculation and incubation 24 or 48 h. The basal medium composition was the same as described in Example 1. Abbreviations have the same meaning.

Consider 3 molecules from patent US9434978B2, “Culture medium for screening or enrichment of methicillin-resistant S. aureus” (BIO-RAD INNOVATIONS, priority 2009, dated 2016).

With `CO/N=C(\C(=O)N[C@@H]1C(=O)N2C(C(=O)O)=C(CSc3nc(=O)c(=O)[nH]n3C)CS[C@H]12)c1csc(N)n1` [CRO, ceftriaxone], the “number of MSSA strains that grew at 24 h after stress” value (“number of MSSA strains that grew” for short) was “four”. In addition, under “plates not submitted to stress”, the “number of MSSA strains able to grow at 24 h” value is “one”.

As for `CO[C@@]1(NC(=O)Cc2cccs2)C(=O)N2C(C(=O)O)=C(COC(N)=O)CS[C@@H]21` [FOX, cefoxitin], the “number of MSSA strains that grew” value is 4.

As to `CO[C@@]1(NC(=O)C(C(=O)O)c2ccc(O)cc2)C(=O)N2C(C(=O)O)=C(CSc3nnnn3C)CO[C@@H]21` (stereo partly shown) [MOX, moxalactam], the “number of MSSA strains that grew” value was 4.
